# According to ChEMBL document CHEMBL1201862, “PubChem BioAssay data set” (2004):
# Calls of active or inactive are those of the source.
# Key:
# [1] = target: Glucose-6-phosphate 1-dehydrogenase (Homo sapiens, UniProt P11413); test: inhibition of Homo sapiens G6PD, dose series – biochemical, fluorescence, selectivity assay for P. falciparum G6PD inhibitor project, dose response (AID 504792); format: functional
# [2] = target: T1, DNA dC->dU-editing enzyme APOBEC-3A (Homo sapiens, UniProt P31941); test: A3A deaminase inhibition for selectivity – biochemical, dose response (AID 504722); format: functional
# [3] = target: T2, Heat shock factor protein 1 (Mus musculus, UniProt P38532); test: enhancement of HSF1-driven luciferase signal – cell-based, NIH3T3, luminescence, dose retest, confirmation (AID 435004); format: functional;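 note: stress induced by proteasome inhibitor MG132 added 30 min after compound; luciferase reporter driven by HSF1 response element in NIH3T3 cells; actives raise luminescence as potentiators of the MG132 stress response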
# T2 sequence (P38532 whole entry): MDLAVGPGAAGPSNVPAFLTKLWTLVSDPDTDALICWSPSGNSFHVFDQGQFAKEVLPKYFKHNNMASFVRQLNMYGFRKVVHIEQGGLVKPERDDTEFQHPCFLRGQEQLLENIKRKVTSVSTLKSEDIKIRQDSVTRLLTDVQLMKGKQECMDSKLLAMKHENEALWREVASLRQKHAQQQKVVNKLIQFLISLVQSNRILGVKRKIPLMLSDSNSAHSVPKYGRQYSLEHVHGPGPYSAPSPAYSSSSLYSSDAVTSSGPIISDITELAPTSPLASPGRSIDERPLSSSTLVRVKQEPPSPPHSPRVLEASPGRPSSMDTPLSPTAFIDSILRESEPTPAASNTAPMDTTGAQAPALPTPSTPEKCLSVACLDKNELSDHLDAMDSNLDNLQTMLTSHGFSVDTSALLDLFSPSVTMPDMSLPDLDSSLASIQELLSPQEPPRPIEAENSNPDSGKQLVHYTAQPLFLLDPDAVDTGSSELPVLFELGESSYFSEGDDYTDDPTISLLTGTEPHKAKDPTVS
# [4] = target: T3, DNA dC->dU-editing enzyme APOBEC-3G (Homo sapiens, UniProt Q9HC16); test: Dose Response confirmation of small molecule APOBEC3G DNA Deaminase Inhibitors via a fluorescence-based single-stranded DNA deaminase assay. [Related pubchem assays (depositor defined):AID493012, AID493028]; format: functional
# [5] = target: Induced myeloid leukemia cell differentiation protein Mcl-1 (Homo sapiens, UniProt Q07820); format: functional
# SUMO-activating enzyme [6] = target: T4, SUMO-activating enzyme (Homo sapiens, UniProt Q9UBT2); test: blockers of SAE1/SAE2–UBC9 SUMO transfer – biochemical, HTRF, uHTS, primary screen (AID 2006); format: protein-complex assay
# ORF 73 = target: T5, ORF 73 (Human herpesvirus 8, UniProt O40947); test: KSHV LANA DNA-binding disruption – biochemical, fluorescence polarization, cherry-picked samples, dose response (AID 504725); set-up: species or system Human gammaherpesvirus 8;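 note: fluorescence polarization of a labeled DNA duplex reporting LANA DNA binding; potency is for inhibitors that block LANA binding to the DNA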
# T5 sequence (O40947 whole entry): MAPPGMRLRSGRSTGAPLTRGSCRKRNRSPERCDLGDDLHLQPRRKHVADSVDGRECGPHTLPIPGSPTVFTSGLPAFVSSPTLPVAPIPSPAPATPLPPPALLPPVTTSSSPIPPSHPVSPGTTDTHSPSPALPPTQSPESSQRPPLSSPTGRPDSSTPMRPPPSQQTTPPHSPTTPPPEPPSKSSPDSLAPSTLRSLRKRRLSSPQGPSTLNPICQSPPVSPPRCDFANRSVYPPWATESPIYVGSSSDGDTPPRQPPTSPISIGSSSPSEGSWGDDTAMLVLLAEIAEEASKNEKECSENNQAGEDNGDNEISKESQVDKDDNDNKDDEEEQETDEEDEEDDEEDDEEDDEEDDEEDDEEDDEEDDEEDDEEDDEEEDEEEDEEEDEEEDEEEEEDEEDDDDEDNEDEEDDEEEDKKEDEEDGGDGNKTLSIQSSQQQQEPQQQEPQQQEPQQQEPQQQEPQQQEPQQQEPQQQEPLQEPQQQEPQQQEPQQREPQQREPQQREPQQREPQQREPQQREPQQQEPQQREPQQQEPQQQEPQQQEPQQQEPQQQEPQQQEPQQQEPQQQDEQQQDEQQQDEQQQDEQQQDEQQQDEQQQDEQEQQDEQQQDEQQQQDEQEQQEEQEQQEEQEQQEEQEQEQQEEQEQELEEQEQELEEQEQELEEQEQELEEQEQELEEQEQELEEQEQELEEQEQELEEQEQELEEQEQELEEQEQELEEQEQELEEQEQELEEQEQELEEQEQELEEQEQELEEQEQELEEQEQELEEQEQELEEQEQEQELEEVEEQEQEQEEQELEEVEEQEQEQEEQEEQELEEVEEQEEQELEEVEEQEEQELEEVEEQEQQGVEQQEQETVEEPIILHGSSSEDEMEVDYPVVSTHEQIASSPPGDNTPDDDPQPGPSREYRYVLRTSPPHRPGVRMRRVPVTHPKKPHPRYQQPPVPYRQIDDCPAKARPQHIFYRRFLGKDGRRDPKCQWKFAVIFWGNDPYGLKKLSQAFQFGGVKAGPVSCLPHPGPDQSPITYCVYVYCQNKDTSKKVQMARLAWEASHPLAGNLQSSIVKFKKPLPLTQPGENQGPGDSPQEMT
# SUMO-activating enzyme [7] = target: T4, SUMO-activating enzyme; test: blockers of UBC9-mediated SUMO conjugation – biochemical, AlphaScreen, SUMOylation inhibitor project, confirmation (AID 2018); format: functional
# [8] = target: T6, Voltage-gated N-type calcium channel alpha-1B subunit/Amyloid beta A4 precursor protein-binding family A member 1 (Homo sapiens, UniProt Q00975+Q02410); format: protein assay
# [9] = target: T6, Voltage-gated N-type calcium channel alpha-1B subunit/Amyloid beta A4 precursor protein-binding family A member 1; format: protein assay; remark: listed apart in the source
# [10] = THP-1 cell cytotoxicity, dose response, cytotoxicity control for non-replicating M. tuberculosis project (AID 489025); format: functional
# Large T antigen = Large T antigen (Simian virus 40, UniProt P03070); format: functional, Betapolyomavirus macacae;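 note: Confirmatory-stage PubChem screen for compounds that inhibit SV40 T antigen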
# [11] = target: T7, Intestinal-type alkaline phosphatase (Homo sapiens, UniProt P09923); test: human intestinal alkaline phosphatase activators, dose response, biochemical, luminescence, uHTS hits (AID 463120); format: functional
# [12] = system: Streptococcus sp. 'group A'; test: Streptococcus pyogenes SK(-)GAS viability under kanamycin – luminescence, BacTiterGlo, confirmation, counter-screen for streptokinase expression inhibitor project, dose response (AID 1900); format: functional, organism-based
# Streptokinase A = target: T8, Streptokinase A (Streptococcus pyogenes serotype M1, UniProt P10520); test: viability-normalized secreted streptokinase activity reduction – plasminogen activation absorbance, OD405, dose response (AID 1914); format: functional, Streptococcus pyogenes M1 GAS;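 note: secreted streptokinase activity via plasminogen activation per viability signal from cell pellet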
# T8 sequence (P10520 whole entry): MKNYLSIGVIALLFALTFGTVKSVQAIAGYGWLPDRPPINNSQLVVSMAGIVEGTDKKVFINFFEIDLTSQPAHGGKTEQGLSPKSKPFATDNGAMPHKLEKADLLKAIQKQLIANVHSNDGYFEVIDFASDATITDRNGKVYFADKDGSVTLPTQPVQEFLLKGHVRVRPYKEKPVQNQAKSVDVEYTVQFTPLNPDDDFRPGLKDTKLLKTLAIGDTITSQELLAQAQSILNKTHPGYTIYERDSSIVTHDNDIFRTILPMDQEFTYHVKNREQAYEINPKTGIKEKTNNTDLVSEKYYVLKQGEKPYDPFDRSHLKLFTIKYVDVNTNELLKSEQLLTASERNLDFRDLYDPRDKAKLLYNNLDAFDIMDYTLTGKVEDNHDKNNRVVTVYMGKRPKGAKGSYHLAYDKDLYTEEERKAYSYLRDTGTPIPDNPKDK
# [13] = target: T9, Alkaline phosphatase, tissue-nonspecific isozyme (Homo sapiens, UniProt P05186); test: activation of tissue-nonspecific alkaline phosphatase – biochemical, TNAP isozyme, human IAP uHTS hits, selectivity assay for human IAP activator project, dose response (AID 488886); format: functional;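 note: potency of compounds raising TNAP activity as a selectivity check on IAP activators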
# T9 sequence (P05186 whole entry): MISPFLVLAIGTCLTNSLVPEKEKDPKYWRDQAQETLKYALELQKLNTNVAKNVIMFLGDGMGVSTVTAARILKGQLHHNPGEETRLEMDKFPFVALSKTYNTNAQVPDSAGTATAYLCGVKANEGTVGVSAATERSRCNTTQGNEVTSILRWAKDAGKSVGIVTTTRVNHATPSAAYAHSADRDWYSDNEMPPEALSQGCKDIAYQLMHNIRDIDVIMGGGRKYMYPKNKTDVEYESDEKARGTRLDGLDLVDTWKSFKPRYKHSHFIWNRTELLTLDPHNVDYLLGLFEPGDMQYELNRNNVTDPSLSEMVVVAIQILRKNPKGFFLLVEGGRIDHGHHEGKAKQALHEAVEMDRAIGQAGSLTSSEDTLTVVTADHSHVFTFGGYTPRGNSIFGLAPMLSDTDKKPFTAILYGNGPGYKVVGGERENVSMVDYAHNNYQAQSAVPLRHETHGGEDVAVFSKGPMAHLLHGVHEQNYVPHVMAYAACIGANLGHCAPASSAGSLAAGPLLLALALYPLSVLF
# Streptococcus = test: GAS UMAA2166 growth inhibition – luminescence, BacTiterGlo, counter-screen for streptokinase expression inhibitor project, dose response (AID 1915); format: functional, organism-based;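 note: potency for reduction of bacterial viability or growth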
# [14] = target: T7, Intestinal-type alkaline phosphatase; test: activation of human intestinal alkaline phosphatase – biochemical, luminescent, uHTS hits, set 2, dose response (AID 488817); format: functional;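 note: potency of activators that raise enzyme activity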
# [15] = target: Intestinal-type alkaline phosphatase (Mus musculus, UniProt P24822); test: PubChem AID 488874; format: functional
# [16] = target: T1, DNA dC->dU-editing enzyme APOBEC-3A; test: Dose Response confirmation of small molecule APOBEC3A DNA Deaminase Inhibitors via a fluorescence-based single-stranded DNA deaminase assay. [Related pubchem assays (depositor defined):AID493011, AID493024]; format: functional
# [17] = target: Eukaryotic translation initiation factor 4H (Homo sapiens, UniProt Q15056); test: eIF4H binding inhibition – biochemical, uHTS, fluorescence polarization, translation initiation inhibitor project, primary screen (AID 2012)
# [18] = target: T3, DNA dC->dU-editing enzyme APOBEC-3G; format: functional
# [19] = target: Polyadenylate-binding protein 1 (Homo sapiens, UniProt P11940); test: blockers of PABP interaction with poly(A) – biochemical, fluorescence polarization, […] (AID 2014)
# [20] = target: T10, Rac GTPase-activating protein 1 (Homo sapiens, UniProt Q9H0H5); test: blockers of MgcRacGAP-driven Rac1 GTP hydrolysis – biochemical, ADP Hunter fluorescence, primary and confirmatory, confirmation (AID 624330); format: functional
# T10 sequence (Q9H0H5 whole entry): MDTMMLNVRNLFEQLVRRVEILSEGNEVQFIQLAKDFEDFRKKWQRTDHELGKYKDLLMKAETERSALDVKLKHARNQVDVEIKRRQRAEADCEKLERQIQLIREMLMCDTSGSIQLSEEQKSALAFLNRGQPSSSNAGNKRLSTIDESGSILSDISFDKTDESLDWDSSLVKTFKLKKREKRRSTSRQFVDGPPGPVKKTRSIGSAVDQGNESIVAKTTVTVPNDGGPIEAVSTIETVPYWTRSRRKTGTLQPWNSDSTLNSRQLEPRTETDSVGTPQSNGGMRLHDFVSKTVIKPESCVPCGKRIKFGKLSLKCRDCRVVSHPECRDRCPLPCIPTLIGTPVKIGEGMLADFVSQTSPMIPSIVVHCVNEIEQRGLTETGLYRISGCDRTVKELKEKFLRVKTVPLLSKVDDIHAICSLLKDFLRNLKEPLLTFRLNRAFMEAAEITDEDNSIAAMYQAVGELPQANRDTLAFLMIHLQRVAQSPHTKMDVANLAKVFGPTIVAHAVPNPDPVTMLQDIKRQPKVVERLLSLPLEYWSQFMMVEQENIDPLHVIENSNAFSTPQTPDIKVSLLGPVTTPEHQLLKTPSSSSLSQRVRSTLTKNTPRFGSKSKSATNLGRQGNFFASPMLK
# T1 sequence (P31941 whole entry): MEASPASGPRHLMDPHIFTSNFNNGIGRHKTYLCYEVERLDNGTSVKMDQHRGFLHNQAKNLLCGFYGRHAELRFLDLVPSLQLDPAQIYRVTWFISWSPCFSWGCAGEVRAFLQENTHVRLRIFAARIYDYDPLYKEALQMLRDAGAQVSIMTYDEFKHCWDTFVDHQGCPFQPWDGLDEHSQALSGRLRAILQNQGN
# T3 sequence (Q9HC16 whole entry): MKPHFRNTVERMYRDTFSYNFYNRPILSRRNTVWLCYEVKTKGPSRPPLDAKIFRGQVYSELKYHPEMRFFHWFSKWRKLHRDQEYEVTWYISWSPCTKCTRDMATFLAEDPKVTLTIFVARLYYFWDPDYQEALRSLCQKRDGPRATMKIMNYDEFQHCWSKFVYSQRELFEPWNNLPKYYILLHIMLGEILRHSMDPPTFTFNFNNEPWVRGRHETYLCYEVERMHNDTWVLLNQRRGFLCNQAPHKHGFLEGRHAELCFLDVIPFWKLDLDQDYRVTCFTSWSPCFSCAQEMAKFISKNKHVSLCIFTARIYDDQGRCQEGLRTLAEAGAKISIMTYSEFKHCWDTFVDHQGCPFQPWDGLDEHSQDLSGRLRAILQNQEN
# Chain of Glucose-6-phosphate 1-dehydrogenase (P11413 whole entry): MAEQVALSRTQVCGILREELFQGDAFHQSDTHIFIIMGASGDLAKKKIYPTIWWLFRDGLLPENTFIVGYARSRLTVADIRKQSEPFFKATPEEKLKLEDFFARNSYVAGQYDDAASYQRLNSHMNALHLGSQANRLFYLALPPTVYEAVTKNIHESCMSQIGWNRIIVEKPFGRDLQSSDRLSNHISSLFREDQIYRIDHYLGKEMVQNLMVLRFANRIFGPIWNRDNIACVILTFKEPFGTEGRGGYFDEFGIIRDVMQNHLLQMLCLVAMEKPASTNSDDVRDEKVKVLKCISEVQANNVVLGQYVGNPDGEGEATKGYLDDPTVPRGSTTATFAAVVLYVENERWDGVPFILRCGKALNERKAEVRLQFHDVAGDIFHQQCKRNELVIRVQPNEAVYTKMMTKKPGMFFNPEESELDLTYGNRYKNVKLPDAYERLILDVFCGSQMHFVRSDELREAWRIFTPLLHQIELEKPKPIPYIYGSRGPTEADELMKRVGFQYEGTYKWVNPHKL
# T7 sequence (P09923 whole entry): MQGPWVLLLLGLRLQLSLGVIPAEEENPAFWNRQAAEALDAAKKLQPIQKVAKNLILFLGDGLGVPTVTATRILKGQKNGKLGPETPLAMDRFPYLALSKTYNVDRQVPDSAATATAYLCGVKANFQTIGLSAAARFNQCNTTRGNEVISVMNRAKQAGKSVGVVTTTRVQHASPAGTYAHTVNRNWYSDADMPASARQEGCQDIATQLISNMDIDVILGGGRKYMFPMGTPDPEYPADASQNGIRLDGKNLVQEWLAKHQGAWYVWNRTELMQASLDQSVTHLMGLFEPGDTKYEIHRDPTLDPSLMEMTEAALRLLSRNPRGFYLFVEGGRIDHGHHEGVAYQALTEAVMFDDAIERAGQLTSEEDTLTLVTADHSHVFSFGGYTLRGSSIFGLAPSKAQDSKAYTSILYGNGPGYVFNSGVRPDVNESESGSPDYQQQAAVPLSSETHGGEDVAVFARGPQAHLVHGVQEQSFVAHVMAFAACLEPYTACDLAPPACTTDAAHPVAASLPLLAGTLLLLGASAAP
# T6 sequence (Q00975 whole entry): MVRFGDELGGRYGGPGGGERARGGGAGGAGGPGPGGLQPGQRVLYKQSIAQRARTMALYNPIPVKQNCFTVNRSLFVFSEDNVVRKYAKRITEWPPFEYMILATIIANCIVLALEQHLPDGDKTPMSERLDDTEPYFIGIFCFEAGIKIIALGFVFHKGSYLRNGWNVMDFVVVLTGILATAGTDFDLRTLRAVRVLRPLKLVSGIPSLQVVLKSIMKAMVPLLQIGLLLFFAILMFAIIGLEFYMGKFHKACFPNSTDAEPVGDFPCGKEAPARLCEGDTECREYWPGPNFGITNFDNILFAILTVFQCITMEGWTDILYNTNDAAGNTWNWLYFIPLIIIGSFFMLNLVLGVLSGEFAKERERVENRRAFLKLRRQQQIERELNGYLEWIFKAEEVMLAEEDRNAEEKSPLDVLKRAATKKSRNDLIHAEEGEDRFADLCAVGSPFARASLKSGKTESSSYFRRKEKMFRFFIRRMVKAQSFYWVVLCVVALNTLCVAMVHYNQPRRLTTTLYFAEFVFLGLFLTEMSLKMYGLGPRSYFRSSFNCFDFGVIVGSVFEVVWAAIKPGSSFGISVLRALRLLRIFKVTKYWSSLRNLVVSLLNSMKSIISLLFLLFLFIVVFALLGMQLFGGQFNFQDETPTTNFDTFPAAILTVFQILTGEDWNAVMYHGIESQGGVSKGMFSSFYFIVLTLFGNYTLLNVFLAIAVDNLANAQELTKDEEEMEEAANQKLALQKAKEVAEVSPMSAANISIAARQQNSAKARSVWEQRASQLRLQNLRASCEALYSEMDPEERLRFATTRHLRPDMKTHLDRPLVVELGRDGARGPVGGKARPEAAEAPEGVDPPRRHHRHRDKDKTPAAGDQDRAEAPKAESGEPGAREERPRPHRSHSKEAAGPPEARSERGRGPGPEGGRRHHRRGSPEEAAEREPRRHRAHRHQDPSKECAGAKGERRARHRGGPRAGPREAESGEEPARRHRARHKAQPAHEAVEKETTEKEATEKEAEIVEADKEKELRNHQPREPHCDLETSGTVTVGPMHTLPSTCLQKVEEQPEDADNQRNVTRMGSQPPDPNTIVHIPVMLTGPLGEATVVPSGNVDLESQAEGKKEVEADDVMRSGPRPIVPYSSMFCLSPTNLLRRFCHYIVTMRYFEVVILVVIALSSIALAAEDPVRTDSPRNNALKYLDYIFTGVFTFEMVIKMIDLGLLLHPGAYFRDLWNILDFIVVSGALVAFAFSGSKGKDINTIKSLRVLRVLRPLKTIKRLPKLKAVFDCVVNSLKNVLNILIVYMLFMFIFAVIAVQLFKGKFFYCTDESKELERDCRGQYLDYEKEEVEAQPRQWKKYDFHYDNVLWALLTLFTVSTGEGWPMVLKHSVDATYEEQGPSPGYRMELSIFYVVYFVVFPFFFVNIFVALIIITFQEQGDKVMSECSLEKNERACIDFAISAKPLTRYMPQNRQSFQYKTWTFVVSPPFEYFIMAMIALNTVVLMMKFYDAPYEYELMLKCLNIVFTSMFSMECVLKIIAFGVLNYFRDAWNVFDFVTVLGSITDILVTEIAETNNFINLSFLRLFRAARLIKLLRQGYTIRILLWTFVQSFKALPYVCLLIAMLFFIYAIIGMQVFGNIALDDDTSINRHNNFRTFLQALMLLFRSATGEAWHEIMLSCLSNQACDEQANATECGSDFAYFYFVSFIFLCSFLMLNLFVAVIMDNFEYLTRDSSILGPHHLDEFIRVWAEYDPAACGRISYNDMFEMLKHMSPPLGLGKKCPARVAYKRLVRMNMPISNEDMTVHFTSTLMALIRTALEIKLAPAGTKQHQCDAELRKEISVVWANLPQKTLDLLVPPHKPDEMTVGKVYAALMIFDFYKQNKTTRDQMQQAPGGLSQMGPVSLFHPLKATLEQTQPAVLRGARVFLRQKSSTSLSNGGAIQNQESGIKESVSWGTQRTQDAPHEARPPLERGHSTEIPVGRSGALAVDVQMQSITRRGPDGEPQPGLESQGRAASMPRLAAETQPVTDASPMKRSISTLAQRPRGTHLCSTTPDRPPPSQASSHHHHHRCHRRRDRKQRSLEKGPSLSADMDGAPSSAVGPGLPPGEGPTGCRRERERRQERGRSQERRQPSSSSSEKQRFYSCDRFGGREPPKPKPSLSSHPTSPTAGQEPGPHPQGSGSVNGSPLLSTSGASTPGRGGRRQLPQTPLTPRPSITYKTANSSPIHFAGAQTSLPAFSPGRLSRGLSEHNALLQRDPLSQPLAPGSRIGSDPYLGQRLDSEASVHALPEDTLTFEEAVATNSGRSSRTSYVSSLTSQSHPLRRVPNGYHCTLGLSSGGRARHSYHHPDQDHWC
# T6 sequence (Q02410 whole entry): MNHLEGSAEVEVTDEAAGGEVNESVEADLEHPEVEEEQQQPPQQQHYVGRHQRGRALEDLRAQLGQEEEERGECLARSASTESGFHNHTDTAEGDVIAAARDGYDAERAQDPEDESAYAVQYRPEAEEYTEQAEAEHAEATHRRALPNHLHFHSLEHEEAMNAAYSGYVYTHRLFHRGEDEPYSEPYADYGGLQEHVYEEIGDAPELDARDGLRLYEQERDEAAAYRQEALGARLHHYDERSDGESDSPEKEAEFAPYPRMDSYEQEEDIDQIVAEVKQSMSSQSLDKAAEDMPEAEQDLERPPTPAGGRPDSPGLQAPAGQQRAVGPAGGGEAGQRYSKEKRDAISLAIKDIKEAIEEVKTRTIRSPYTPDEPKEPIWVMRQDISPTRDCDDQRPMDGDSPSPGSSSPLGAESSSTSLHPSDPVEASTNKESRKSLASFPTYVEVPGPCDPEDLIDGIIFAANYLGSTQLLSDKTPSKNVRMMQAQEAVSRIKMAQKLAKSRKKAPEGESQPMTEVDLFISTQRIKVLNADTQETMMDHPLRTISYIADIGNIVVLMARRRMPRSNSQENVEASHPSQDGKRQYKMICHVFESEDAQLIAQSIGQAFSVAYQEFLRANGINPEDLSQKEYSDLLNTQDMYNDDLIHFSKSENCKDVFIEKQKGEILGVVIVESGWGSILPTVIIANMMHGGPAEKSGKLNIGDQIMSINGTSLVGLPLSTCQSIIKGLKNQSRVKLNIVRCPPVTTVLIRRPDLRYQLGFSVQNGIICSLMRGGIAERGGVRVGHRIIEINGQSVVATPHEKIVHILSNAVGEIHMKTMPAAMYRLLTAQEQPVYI
smiles,measurement,setting,value
COc1cc(SSc2cc(OC)cc([N+](=O)[O-])c2N)c(N)c([N+](=O)[O-])c1,IC50,[1],20.9 µM (inactive)
same,IC50,[2],> 100 µM (inactive)
same,EC50,[3],> 260 µM (inactive)
same,IC50,[4],2.54 µM (active)
same,IC50,[5],> 54 µM (active)
COc1cc2c(cc1OC)-c1cc3ccc4c(c3c[n+]1CC2)OCO4,IC50,SUMO-activating enzyme [6],8.68 µM (active)
same,AC50,ORF 73,20.5 µM (active)
same,IC50,SUMO-activating enzyme [7],4.17 µM (active)
CCOc1ccc(NC(=O)Cn2sc3nc(C)cc(C)c3c2=O)cc1,IC50,[1],24.1 µM (inactive)
same,IC50,[8],13.1 µM (active)
same,IC50,[2],> 100 µM (inactive)
same,IC50,[4],2.96 µM (active)
same,IC50,[9],> 50 µM (inactive)
same,CC50,[10],36.1 µM (active)
same,IC50,Large T antigen,> 100 µM (active)
O=C(CCN1C(=O)/C(=C/c2ccccc2Cl)SC1=S)NNC(=O)c1ccccc1O,EC50,[11],7.7 µM (active)
same,EC50,[12],3.63 µM (active)
same,EC50,Streptokinase A,8.36 µM (active)
same,EC50,[13],23.2 µM (active)
same,EC50,Streptococcus,14.6 µM (active)
same,EC50,[14],17.7 µM (active)
same,IC50,[15],66.5 µM (active)
CCOC(=O)COc1ccc(Br)cc1/C=C1\SC(N)=NC1=O,IC50,[16],8.37 µM (active)
same,IC50,[17],> 100 µM (inactive)
same,IC50,[18],8.41 µM (active)
same,IC50,[19],7.13 µM (active)
Cc1ccc(C)c(NC(=O)c2cc[n+](C)cc2)c1,IC50,[16],2.08 µM (active)
same,IC50,[18],4.76 µM (active)
COc1cc(/C=N/n2c(S)nnc2-c2cc(C)[nH]n2)cc(OC)c1OC,IC50,[20],82.2 µM (active)
same,IC50,[2],> 100 µM (inactive)
same,IC50,[4],2.5 µM (active)
